Measured values: patent US9751869B2, “LXR modulators” (BRISTOL-MYERS SQUIBB COMPANY, priority 2013, dated 2017)

Target: T1, LXRβ (Homo sapiens, UniProt P55055)
T1 construct: Co-transfection expression plasmids, comprising full-length LXRα (pCMX-h LXRα or LXRβ (pCMX-hLXRβ)); expressed in transfected cells; host or cells: CV-1 African green monkey kidney cells, transient transfection with pCMX-hLXRβ
T1 sequence (P55055 1-460): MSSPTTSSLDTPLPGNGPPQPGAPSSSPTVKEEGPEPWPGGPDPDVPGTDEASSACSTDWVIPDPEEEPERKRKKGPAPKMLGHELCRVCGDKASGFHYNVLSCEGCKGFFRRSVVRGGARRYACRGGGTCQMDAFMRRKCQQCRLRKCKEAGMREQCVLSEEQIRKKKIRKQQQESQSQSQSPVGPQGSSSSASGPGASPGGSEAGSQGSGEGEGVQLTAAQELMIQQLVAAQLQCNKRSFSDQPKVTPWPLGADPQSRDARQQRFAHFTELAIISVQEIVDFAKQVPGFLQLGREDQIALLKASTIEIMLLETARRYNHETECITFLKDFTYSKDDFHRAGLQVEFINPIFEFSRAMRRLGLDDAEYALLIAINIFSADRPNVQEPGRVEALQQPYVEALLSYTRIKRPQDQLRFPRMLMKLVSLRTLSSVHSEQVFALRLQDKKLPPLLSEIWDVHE
T1 sequence (P19793 1-462 partner): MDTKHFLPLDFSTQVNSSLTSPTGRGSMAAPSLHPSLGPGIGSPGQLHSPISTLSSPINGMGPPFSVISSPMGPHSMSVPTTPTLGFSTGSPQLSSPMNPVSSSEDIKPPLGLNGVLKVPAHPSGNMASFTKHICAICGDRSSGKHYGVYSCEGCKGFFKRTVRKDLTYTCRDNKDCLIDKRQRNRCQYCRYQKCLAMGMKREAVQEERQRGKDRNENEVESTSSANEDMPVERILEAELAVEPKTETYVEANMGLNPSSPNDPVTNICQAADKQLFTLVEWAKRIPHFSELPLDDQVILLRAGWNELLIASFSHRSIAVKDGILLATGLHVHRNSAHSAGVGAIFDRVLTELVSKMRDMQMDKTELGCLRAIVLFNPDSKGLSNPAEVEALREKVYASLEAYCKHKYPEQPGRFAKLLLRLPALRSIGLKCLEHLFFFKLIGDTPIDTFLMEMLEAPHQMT
Test: LXR/LXRE co-transfection assay (luciferase reporter) in CV-1 cells, LXRβ
Type: cell-based
Details: for EC50: CV-1 cells transfected with pCMX-hLXRβ and LXREx1-Tk-Luciferase, 20 hours incubation, read-out: LXRbeta agonism EC50; for Emax: read-out: LXRbeta % EFFICACY
Summary of the method: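 CV-1 cells transiently co-transfected with full-length human LXRβ, LXRE-Tk-luciferase reporter and β-galactosidase control, then exposed to compound (≤0.5% DMSO) for 20 h at 37 °C before luminescence read. EC50 from 10-point, half-log dose curves; efficacy relative to the sulfonamide high control, means of 2–3 experiments.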

[1] = CV-1 cells, relative to maximum response of high control N-(3-((4-fluorophenyl)-(naphthalene-2-sulfonyl)amino)propyl)-2,2-dimethylpropionamide

Structure (SMILES) | EC50 [nM] | Emax [1] [%] | LXRbeta % EFFICACY [1] [%]
Cc1nc(-c2ccc3c(c2)OC(F)(F)O3)c(-c2cc(-c3cccc(S(C)(=O)=O)c3)ccc2-c2cc(C(=O)NCC(F)(F)F)nn2C)o1 [Example 111, 5-(3-(4-(2,2-difluorobenzo[d][1,3]dioxol-5-yl)-2-methyloxazol-5-yl)-3′-(methylsulfonyl)-[1,1′-biphenyl]-4-yl)-1-methyl-N-(2,2,2-trifluoroethyl)-1H-pyrazole-3-carboxamide] | 284 | 51 | 
Cc1nc(-c2ccc3c(c2)OC(F)(F)O3)c(-c2cc(-c3cc(F)c(CO)c(S(C)(=O)=O)c3)ccc2-c2cc(C(C)OC(N)=O)nn2C)o1 (centres unmarked) [Example 131, 1-(5-(3-(4-(2,2-difluorobenzo[d][1,3]dioxol-5-yl)-2-methyloxazol-5-yl)-3′-fluoro-4′-(hydroxymethyl)-5′-(methylsulfonyl)-[1,1′-biphenyl]-4-yl)-1-methyl-1H-pyrazol-3-yl)ethyl carbamate] | 178 | 47 | 
Cc1nc(-c2ccc3c(c2)OC(F)(F)O3)c(-c2cc(-c3cc(F)c(CO)c(S(C)(=O)=O)c3)ccc2-c2cc(C(F)(F)C(=O)O)nn2C)o1 [Example 75, 2-(5-(3-(4-(2,2-difluorobenzo[d][1,3]dioxol-5-yl)-2-methyloxazol-5-yl)-3′-fluoro-4′-(hydroxymethyl)-5′-(methylsulfonyl)biphenyl-4-yl)-1-methyl-1H-pyrazol-3-yl)-2,2-difluoroacetic acid] | 7670 | 52 | 
Cc1nc(-c2cc(-c3cccc(S(C)(=O)=O)c3)ccc2-n2ccc(C(C)(C)O)n2)c(-c2ccc(OC(F)(F)F)cc2)o1 [Example 417, 2-(1-(3-(2-methyl-5-(4-(trifluoromethoxy)phenyl)oxazol-4-yl)-3′-(methylsulfonyl)-[1,1′-biphenyl]-4-yl)-1H-pyrazol-3-yl)propan-2-ol] | 1010 | 16 | 
Cc1nc(-c2ccc3c(c2)OC(F)(F)O3)c(-c2cc(-c3cccc(S(C)(=O)=O)c3)ccc2-c2cc(C(=O)NC3CC3)nn2C)o1 [Example 107, N-cyclopropyl-5-(3-(4-(2,2-difluorobenzo[d][1,3]dioxol-5-yl)-2-methyloxazol-5-yl)-3′-(methylsulfonyl)-[1,1′-biphenyl]-4-yl)-1-methyl-1H-pyrazole-3-carboxamide] | 1250 | 37 | 
Cc1nc(-c2ccc(OC(F)(F)F)cc2)c(-c2cc(-c3cccc(S(C)(=O)=O)c3)ccc2-n2nc(C(F)(F)F)cc2C2CC2)o1 [Example 324, 5-(4-(5-cyclopropyl-3-(trifluoromethyl)-1H-pyrazol-1-yl)-3′-(methylsulfonyl)biphenyl-3-yl)-2-methyl-4-(4-(trifluoromethoxy)phenyl)oxazole] | 1230 | 44 | 
Cc1nc(-c2ccc3c(c2)OC(F)(F)O3)c(-c2cc(-c3cccc(S(C)(=O)=O)c3)ccc2-c2cc(C(C)O)nn2C)o1 (centres unmarked) [Example 102] | 227 |  | 96
Cc1nc(-c2ccc(OC(F)(F)F)cc2)c(-c2cc(-c3cccc(S(C)(=O)=O)c3)ccc2-n2ccc(C(C)(C)C#N)n2)o1 [Example 373] | 92 | 22 | 
Cn1nc(C(F)(F)C(=O)NC(C)(C)CO)cc1-c1ccc(-c2cc(F)c(CO)c(S(C)(=O)=O)c2)cc1-n1nncc1-c1ccc(OC(F)(F)F)cc1 [Example 27, 2,2-difluoro-2-(5-(3′-fluoro-4′-(hydroxymethyl)-5′-(methylsulfonyl)-3-(5-(4-(trifluoromethoxy)phenyl)-1H-1,2,3-triazol-1-yl)-[1,1′-biphenyl]-4-yl)-1-methyl-1H-pyrazol-3-yl)-N-(1-hydroxy-2-methylpropan-2-yl)acetamide] | 1570 | 111 | 
Cc1nc(-c2ccc(Cl)c(OC(F)F)c2)c(-c2cc(-c3cccc(S(C)(=O)=O)c3)ccc2-n2ccc(C(F)(F)F)n2)o1 [Example 355, 4-(4-chloro-3-(difluoromethoxy)phenyl)-2-methyl-5-(3′-(methylsulfonyl)-4-(3-(trifluoromethyl)-1H-pyrazol-1-yl)biphenyl-3-yl)oxazole] | 196 | 65 | 
Cc1nc(-c2ccc(OC(F)(F)F)cc2)c(-c2cc(-c3cccc(S(C)(=O)=O)c3)ccc2-n2ccc(CO)n2)o1 [Example 321, (1-(3-(2-methyl-4-(4-(trifluoromethoxy)phenyl)oxazol-5-yl)-3′-(methylsulfonyl)biphenyl-4-yl)-1H-pyrazol-3-yl)methanol] | 1440 | 40 | 
Cc1nc(-c2ccc3c(c2)OC(F)(F)O3)c(-c2cc(-c3cc(F)c(CO)c(S(C)(=O)=O)c3)ccc2-c2cc(C(F)(F)C(=O)NCC(N)=O)nn2C)o1 [Example 89, N-(2-amino-2-oxoethyl)-2-(5-(3-(4-(2,2-difluorobenzo[d][1,3]dioxol-5-yl)-2-methyloxazol-5-yl)-3′-fluoro-4′-(hydroxymethyl)-5′-(methylsulfonyl)biphenyl-4-yl)-1-methyl-1H-pyrazol-3-yl)-2,2-difluoroacetamide] | 4780 | 37 | 

Stronger by EC50, values ahead:

EC50 [nM] | Emax [1] [%] | LXRbeta % EFFICACY [1] [%] | Structure (SMILES)
18 | 76 |  | Cc1nc(-c2cc(-c3cccc(S(C)(=O)=O)c3)ccc2-n2nc(C(F)(F)F)cc2C)c(-c2ccc(OC(F)F)cc2)o1 [Example 383, 5-(4-(difluoromethoxy)phenyl)-2-methyl-4-(4-(5-methyl-3-(trifluoromethyl)-1H-pyrazol-1-yl)-3′-(methylsulfonyl)biphenyl-3-yl)oxazole]
16 | 97 |  | Cc1nc(-c2cc(-c3cccc(S(C)(=O)=O)c3)ccc2-n2ccc(C(F)(F)F)n2)c(-c2ccc(OC(F)F)nc2)o1 [Example 394, 5-(6-(difluoromethoxy)pyridin-3-yl)-2-methyl-4-(3′-(methylsulfonyl)-4-(3-(trifluoromethyl)-1H-pyrazol-1-yl)biphenyl-3-yl)oxazole]
84 | 88 |  | Cc1nc(-c2ccc(OC(F)F)c(F)c2)c(-c2cc(-c3cccc(S(C)(=O)=O)c3)ccc2-c2cc(C(F)(F)CO)nn2C)o1 [Example 76, 2-(5-(3-(4-(4-(difluoromethoxy)-3-fluorophenyl)-2-methyloxazol-5-yl)-3′-(methylsulfonyl)biphenyl-4-yl)-1-methyl-1H-pyrazol-3-yl)-2,2-difluoroethanol]
87 | 48 |  | Cc1nc(-c2ccc3c(c2)OC(F)(F)O3)c(-c2cc(-c3cccc(S(C)(=O)=O)c3)ccc2-c2cc(C(C)OC(N)=O)nn2C)o1 (centres unmarked) [Example 129, 1-(5-(3-(4-(2,2-difluorobenzo[d][1,3]dioxol-5-yl)-2-methyloxazol-5-yl)-3′-(methylsulfonyl)-[1,1′-biphenyl]-4-yl)-1-methyl-1H-pyrazol-3-yl)ethyl carbamate]
72 | 79 |  | CNC(=O)C(F)(F)c1cc(-c2ccc(-c3cc(F)c(CO)c(S(C)(=O)=O)c3)cc2-c2oc(C)nc2-c2ccc(OC(F)F)c(F)c2)n(C)n1 [Example 78, 2-(5-(3-(4-(4-(difluoromethoxy)-3-fluorophenyl)-2-methyloxazol-5-yl)-3′-fluoro-4′-(hydroxymethyl)-5′-(methylsulfonyl)biphenyl-4-yl)-1-methyl-1H-pyrazol-3-yl)-2,2-difluoro-N-methylacetamide]
62 | 77 |  | Cc1nc(-c2cc(F)c(OC(F)F)c(F)c2)c(-c2cc(-c3cccc(S(C)(=O)=O)c3)ccc2-n2ccc(C(F)(F)F)n2)o1 [Example 351, 4-(4-(difluoromethoxy)-3,5-difluorophenyl)-2-methyl-5-(3′-(methylsulfonyl)-4-(3-(trifluoromethyl)-1H-pyrazol-1-yl)biphenyl-3-yl)oxazole]
46 | 94 |  | Cc1nc(-c2ccc(OC(F)(F)F)cc2)c(-c2cc(-c3cccc(S(C)(=O)=O)c3)ccc2-c2cc(C(F)(F)F)nn2C)o1 [Example 53, 2-methyl-5-(4-(1-methyl-3-(trifluoromethyl)-1H-pyrazol-5-yl)-3′-(methylsulfonyl)biphenyl-3-yl)-4-(4-(trifluoromethoxy)phenyl)Oxazole]
